Assay results: ChEMBL document CHEMBL1156558, “Improvement of the transactivation activity of phenylpropanoic acid-type peroxisome proliferator-activated receptor pan agonists: effect of introduction of fluorine at the linker part” (Bioorg Med Chem Lett, 2008)

Tests used:
Type in all cases: functional, cell-based
[1] = target: T1, Peroxisome proliferator-activated receptor gamma (Homo sapiens, UniProt P37231); test: Agonist activity at PPARgamma transfected in HEK293 cells by GAL4 transactivation assay
T1 sequence (P37231 whole entry): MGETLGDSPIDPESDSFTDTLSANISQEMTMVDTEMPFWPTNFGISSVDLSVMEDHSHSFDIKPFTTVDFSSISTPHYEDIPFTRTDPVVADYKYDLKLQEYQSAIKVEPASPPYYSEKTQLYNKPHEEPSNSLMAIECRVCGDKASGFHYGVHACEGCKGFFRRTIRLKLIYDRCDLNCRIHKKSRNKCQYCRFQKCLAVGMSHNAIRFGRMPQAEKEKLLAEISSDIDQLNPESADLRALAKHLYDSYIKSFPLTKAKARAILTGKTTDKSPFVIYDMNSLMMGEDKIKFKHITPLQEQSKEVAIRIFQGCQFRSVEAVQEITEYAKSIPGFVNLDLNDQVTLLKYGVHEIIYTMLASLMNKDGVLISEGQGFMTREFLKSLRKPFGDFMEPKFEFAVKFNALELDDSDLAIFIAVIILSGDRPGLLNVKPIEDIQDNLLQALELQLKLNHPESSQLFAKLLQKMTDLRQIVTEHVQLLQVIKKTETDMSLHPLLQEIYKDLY

[2] = target: T2, Peroxisome proliferator-activated receptor alpha (Homo sapiens, UniProt Q07869); test: Agonist activity at PPARalpha transfected in HEK293 cells by GAL4 transactivation assay
T2 sequence (Q07869 whole entry): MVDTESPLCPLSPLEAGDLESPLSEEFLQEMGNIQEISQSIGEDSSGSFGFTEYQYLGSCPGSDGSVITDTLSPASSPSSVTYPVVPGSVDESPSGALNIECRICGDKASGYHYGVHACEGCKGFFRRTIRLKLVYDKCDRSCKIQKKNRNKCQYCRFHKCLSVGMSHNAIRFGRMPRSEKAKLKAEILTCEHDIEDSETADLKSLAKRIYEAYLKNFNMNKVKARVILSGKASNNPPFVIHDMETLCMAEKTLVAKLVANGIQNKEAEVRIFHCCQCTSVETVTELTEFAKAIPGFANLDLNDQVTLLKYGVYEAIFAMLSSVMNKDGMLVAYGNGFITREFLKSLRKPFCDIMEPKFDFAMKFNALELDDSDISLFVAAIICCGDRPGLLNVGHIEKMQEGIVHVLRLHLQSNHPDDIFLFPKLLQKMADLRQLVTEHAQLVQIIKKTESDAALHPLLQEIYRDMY

[3] = target: T3, Peroxisome proliferator-activated receptor delta (Homo sapiens, UniProt Q03181); test: Agonist activity at PPARdelta transfected in HEK293 cells by GAL4 transactivation assay
T3 sequence (Q03181 whole entry): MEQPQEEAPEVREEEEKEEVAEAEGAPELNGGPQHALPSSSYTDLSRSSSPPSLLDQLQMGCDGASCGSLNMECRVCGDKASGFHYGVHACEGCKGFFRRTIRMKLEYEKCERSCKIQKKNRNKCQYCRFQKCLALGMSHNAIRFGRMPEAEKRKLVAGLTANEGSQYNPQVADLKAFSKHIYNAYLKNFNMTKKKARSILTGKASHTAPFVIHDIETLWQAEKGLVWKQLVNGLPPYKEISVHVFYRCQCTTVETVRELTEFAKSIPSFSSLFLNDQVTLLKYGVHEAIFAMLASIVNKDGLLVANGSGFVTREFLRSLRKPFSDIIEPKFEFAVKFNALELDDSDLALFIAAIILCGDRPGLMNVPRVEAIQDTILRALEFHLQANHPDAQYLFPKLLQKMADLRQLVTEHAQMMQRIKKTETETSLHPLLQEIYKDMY

Compound	EC50 [1] [nM]	EC50 [2] [nM]	EC50 [3] [nM]
CCCOc1cc(F)c(C[C@@H](CC)C(=O)O)cc1CNC(=O)c1ccc(C23CC4CC(CC(C4)C2)C3)cc1F	160	200	180
CCC(Cc1ccc(OC)c(CNC(=O)c2ccc(C34CC5CC(CC(C5)C3)C4)cc2F)c1)C(=O)O (racemic)	140	60	550
CCC(Cc1cc(F)c(OC)c(CNC(=O)c2ccc(C34CC5CC(CC(C5)C3)C4)cc2)c1)C(=O)O (racemic)	190	260	2200
CCCOc1cc(F)c(CC(CC)C(=O)O)cc1CNC(=O)c1ccc(C23CC4CC(CC(C4)C2)C3)cc1 (racemic)	15	17	60
CCC(Cc1cc(F)c(OC)c(CNC(=O)c2ccc(C(F)(F)F)cc2)c1)C(=O)O (racemic)	> 10000	54	59
CCCOc1ccc(C[C@H](CC)C(=O)O)cc1CNC(=O)c1ccc(C23CC4CC(CC(C4)C2)C3)cc1	–	58	–

Further compounds by falling EC50 [2], results first:

EC50 [1] [nM]	EC50 [2] [nM]	EC50 [3] [nM]	Compound
110	53	940	CCC(Cc1ccc(OC)c(CNC(=O)c2ccc(C34CC5CC(CC(C5)C3)C4)cc2)c1)C(=O)O (racemic)
35	13	28	CCCOc1cc(F)c(CC(CC)C(=O)O)cc1CNC(=O)c1ccc(C23CC4CC(CC(C4)C2)C3)cc1F (racemic)
36	13	280	CCC(Cc1cc(CNC(=O)c2ccc(C34CC5CC(CC(C5)C3)C4)cc2)c(OC)cc1F)C(=O)O (racemic)
38	12	25	CCCOc1cc(F)c(C[C@H](CC)C(=O)O)cc1CNC(=O)c1ccc(C23CC4CC(CC(C4)C2)C3)cc1F
2600	7.9	29	CCC(Cc1ccc(OC)c(CNC(=O)c2ccc(C(F)(F)F)cc2F)c1)C(=O)O (racemic)
22	7.5	55	CCOc1cc(F)c(CC(CC)C(=O)O)cc1CNC(=O)c1ccc(C23CC4CC(CC(C4)C2)C3)cc1F (racemic)
24	7.1	94	CCOc1cc(F)c(CC(CC)C(=O)O)cc1CNC(=O)c1ccc(C23CC4CC(CC(C4)C2)C3)cc1 (racemic)
1100	3.6	20	CCC(Cc1cc(CNC(=O)c2ccc(C(F)(F)F)cc2)c(OC)cc1F)C(=O)O (racemic)
